Where two headings read alike, the source gives them in different places.
Legend:
[1] = Mouse PK studies after oral and IV dosing; type: in vivo; settings: for F: PO 3 mg/kg vs IV 1 mg/kg; for AUC(0-t) / clearance / half-life / Vd / Cmax / Tmax: in vivo; for clearance: read-out: IV Cl (converted); for Vd: read-out: IV VSS
Procedure: The pharmacokinetics of representative Compounds of the Disclosure were determined after oral and IV dosing at the concentrations indicated in mouse (Table 7). […] The vehicles used in these studies are either (i) 10% PEG400+90% PBS (adjusted to pH to 8.0 by 0.5 N NaOH); or (ii) 100% PEG200.

[2] = biological target: T1, AR protein (Homo sapiens, UniProt P10275); experiment: Western blotting analysis of AR protein levels in VCaP cells, band quantification, DC50/DC90; type: cell-based; settings: VCaP cells, Table 6; read-out: VCaP DC50
T1 construct: endogenous in cells; host or cells: VCaP
T1 sequence (P10275 1-920): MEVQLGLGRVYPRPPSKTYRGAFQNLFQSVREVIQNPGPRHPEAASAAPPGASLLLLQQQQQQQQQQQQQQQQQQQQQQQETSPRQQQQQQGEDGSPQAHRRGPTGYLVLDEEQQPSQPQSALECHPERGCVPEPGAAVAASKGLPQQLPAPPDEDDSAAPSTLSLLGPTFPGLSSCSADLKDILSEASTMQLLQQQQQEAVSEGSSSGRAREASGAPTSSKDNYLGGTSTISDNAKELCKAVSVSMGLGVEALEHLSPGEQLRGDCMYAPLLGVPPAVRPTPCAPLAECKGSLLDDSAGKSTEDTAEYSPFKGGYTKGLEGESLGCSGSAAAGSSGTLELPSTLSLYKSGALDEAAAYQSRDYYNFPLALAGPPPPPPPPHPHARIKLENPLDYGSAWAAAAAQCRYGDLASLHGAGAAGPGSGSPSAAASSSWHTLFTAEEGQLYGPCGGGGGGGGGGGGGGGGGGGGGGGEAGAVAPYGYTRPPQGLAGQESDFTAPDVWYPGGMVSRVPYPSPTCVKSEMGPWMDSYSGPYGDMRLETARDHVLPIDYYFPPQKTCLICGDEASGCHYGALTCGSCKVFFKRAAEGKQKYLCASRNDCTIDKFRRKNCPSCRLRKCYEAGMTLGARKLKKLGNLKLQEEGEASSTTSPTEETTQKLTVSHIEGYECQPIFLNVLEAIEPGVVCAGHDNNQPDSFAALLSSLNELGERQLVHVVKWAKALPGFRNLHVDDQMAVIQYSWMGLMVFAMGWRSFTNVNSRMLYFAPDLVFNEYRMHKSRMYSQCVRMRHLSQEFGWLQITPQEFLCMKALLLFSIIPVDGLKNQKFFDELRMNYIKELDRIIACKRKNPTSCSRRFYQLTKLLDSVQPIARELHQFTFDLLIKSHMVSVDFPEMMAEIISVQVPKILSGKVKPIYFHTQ
Procedure: The appropriate cell line, e.g., prostate cancer LNCaP, Vcap, or 22RV1 cell line, was treated with Compounds of the Disclosure as indicated. The treated cells were lysed with RIPA buffer. […] GAPDH was used as a loading control.
Bands were quantified with ImageJ software. The relative numbers of each band obtained from normalization with its corresponding GAPDH level were compared with Prism 8 software. The DC50 values were produced from Prism 8, and the DC90 values were calculated with an equation=Bottom+(Top−Bottom)/(1+10^((Log EC50−X)*HillSlope) based on DC50 and Hillslope values.

[3] = iv, 1 mg/kg, IV, dose 1 mg/kg, read-out: IV AUC(0 − t)
[4] = iv, 1 mg/kg, IV, dose 1 mg/kg, read-out: IV T1/2 (converted)
[5] = po, 3 mg/kg, PO, dose 3 mg/kg, read-out: PO AUC(0 − t)
[6] = po, 3 mg/kg, PO, dose 3 mg/kg, read-out: PO T1/2 (converted)

Row | Compound | F [1] | AUC(0-t) [1, 3] | clearance ([1]; iv, 1 mg/kg, IV, dose 1 mg/kg) | half-life [1, 4] | Vd ([1]; iv, 1 mg/kg, IV, dose 1 mg/kg) | Cmax ([1]; po, 3 mg/kg) | Tmax ([1]; po, 3 mg/kg) | AUC(0-t) [1, 5] | half-life [1, 6] | DC50 [2]
1 | C[C@H]1CC2(CCN(c3ccc(C(=O)N4CCC(CN5CCN(c6cc7c(cc6F)C(=O)N(C6CCC(=O)NC6=O)C7=O)CC5)CC4)cc3)CC2)CN1c1ccc(C#N)c(Cl)c1 (stereo partly drawn) [Cpd. No. 444, 2-chloro-4-((3S)-8-(4-(4-((4-(2-(2,6-dioxopiperidin-3-yl)-6-fluoro-1,3-dioxoisoindolin-5-yl)piperazin-1-yl)methyl)piperidine-1-carbonyl)phenyl)-3-methyl-2,8-diazaspiro[4.5]decan-2-yl)benzonitrile] | 68% | 7800 ng·h/mL | 1.83 mL/min/kg | 8.3 h | 1.2 L/kg | 1250 ng/mL | 4 h | 16000 ng·h/mL | 6.9 h | 
2 | C[C@H]1CC2(CCN(c3cnc(C(=O)N4CCC(CN5Cc6cc7c(cc6C5)C(=O)N(C5CCC(=O)NC5=O)C7=O)CC4)cn3)CC2)CN1c1ccc(C#N)c(Cl)c1 (stereo partly drawn) [Cpd. No. 495, 2-chloro-4-((3S)-8-(5-(4-((6-(2,6-dioxopiperidin-3-yl)-5,7-dioxo-3,5,6,7-tetrahydropyrrolo[3,4-f]isoindol-2(1H)-yl)methyl)piperidine-1-carbonyl)pyrazin-2-yl)-3-methyl-2,8-diazaspiro[4.5]decan-2-yl)benzonitrile] | 107% | 950 ng·h/mL | 16.2 mL/min/kg | 2.6 h | 2.59 L/kg | 722 ng/mL | 0.8 h | 3050 ng·h/mL | 3.4 h | 
3 | C[C@H]1CC2(CCN(c3ccc(C(=O)N4CCN(C5CN(c6cc7c(cc6F)C(=O)N(C6CCC(=O)NC6=O)C7=O)C5)CC4)nn3)CC2)CN1c1ccc(C#N)c(Cl)c1 (stereo partly drawn) [Cpd. No. 501, 2-chloro-4-((3S)-8-(6-(4-(1-(2-(2,6-dioxopiperidin-3-yl)-6-fluoro-1,3-dioxoisoindolin-5-yl)azetidin-3-yl)piperazine-1-carbonyl)pyridazin-3-yl)-3-methyl-2,8-diazaspiro[4.5]decan-2-yl)benzonitrile] |  |  |  |  |  |  |  |  |  | < 1 nM
4 | C[C@H]1CC2(CCN(c3ccc(C(=O)N4CCN(CC5CN(c6cc7c(cc6F)C(=O)N(C6CCC(=O)NC6=O)C7=O)C5)CC4)nn3)CC2)CN1c1ccc(C#N)c(Cl)c1 (stereo partly drawn) [Cpd. No. 503, 2-chloro-4-((3S)-8-(6-(4-((1-(2-(2,6-dioxopiperidin-3-yl)-6-fluoro-1,3-dioxoisoindolin-5-yl)azetidin-3-yl)methyl)piperazine-1-carbonyl)pyridazin-3-yl)-3-methyl-2,8-diazaspiro[4.5]decan-2-yl)benzonitrile] |  |  |  |  |  |  |  |  |  | 1 to 10 nM
5 | C[C@H]1CC2(CCN(c3ccc(C(=O)N4CCN(C5CCN(c6cc7c(cc6F)C(=O)N(C6CCC(=O)NC6=O)C7=O)CC5)CC4)cc3)CC2)CN1c1ccc(C#N)c(Cl)c1 (some centres unmarked) [Cpd. No. 540] | 61% | 7990 ng·h/mL | 2 mL/min/kg | 7.3 h | 0.96 L/kg | 1130 ng/mL | 3.3 h | 14500 ng·h/mL | 7.8 h | 
6 | C[C@H]1CC2(CCN(c3ccc(C(=O)N4CC[C@@H](CN5CCN(c6ccc7c(c6)C(=O)N(C6CCC(=O)NC6=O)C7=O)CC5)C4)cc3)CC2)CN1c1ccc(C#N)c(Cl)c1 (some centres unmarked) [compound 448] | 26% | 78 ng·h/mL | 203 mL/min/kg | 2.74 h | 25.3 L/kg | 16 ng/mL | 1.67 h | 60 ng·h/mL | 4.78 h | 
7 | C[C@H]1CC2(CCN(c3ccc(C(=O)N4CCN(CC5CCN(c6cc7c(cc6F)C(=O)N(C6CCC(=O)NC6=O)C7=O)CC5)CC4)nn3)CC2)CN1c1ccc(C#N)c(Cl)c1 (some centres unmarked) [compound 588] | 54% | 1080 ng·h/mL | 13.8 mL/min/kg | 9.5 h | 6.76 L/kg | 347 ng/mL | 1 h | 1760 ng·h/mL | 5.9 h | 

From patent US20220380368A1, “SPIROCYCLIC ANDROGEN RECEPTOR PROTEIN DEGRADERS” (THE REGENTS OF THE UNIVERSITY OF MICHIGAN, priority 2019, published 2022)
